Test results as given in patent US20240197938A1, “ANTIMICROBIAL COMPOUNDS BASED ON GLUCOHEPTONIC ACIDS AND THEIR SALTS” (HARCROS CHEMICALS, INC., priority 2021, published 2024).

Experiments:
[1] = Bubble pressure tensiometry (dynamic surface tension, calculated CMC); assay type: physicochemical; conditions: sub-CMC, CMC and super-CMC concentrations; FIGS. 1-7
Experimental: Dynamic surface tensions of certain formulations were measured using a KRÜSS BP100 BPT Mobile bubble pressure tensiometer. Samples of the solution of Example 7 were tested by adding the test solution to a glass dish and lowering the disposable capillary tip and temperature probe into the solution. The dynamic setting was selected, and the instrument was set to collect 30 data points, the bubble age increasing from about 10 ms to about 30,000 ms.
Bubble tensiometry was used to calculate the Critical Micelle Concentration (CMC) value for each of the solutions.
FIG. 1 presents a comparison of the bubble age to surface tension for RM14A at CMC, sub-CMC, and super-CMC concentrations. FIG. 2 presents a comparison of the bubble age to surface tension for RM14B at CMC, sub-CMC, and super-CMC concentrations. FIG. 3 presents a comparison of the bubble age to surface tension for RM14C at CMC, sub-CMC, and super-CMC concentrations. FIG. 4 presents a comparison of the bubble age to surface tension for RM12A, RM13A, RM14A, and RM15A at super-CMC concentrations. FIG. 5 presents a comparison of the bubble age to surface tension for RM12A, RM13A, RM14A, and RM15A at CMC concentrations. FIG. 6 presents a comparison of the bubble age to surface tension for RM12A, RM13A, RM14A, and RM15A at CMC concentrations. FIG. 7 presents a comparison of bubble age to surface tension for RM12A, RM13A, RM14A, and RM15A at sub-CMC concentrations.

Candida albicans = test: ASTM E2315-16 Time-Kill Procedure; assay type: cell-based; conditions: 30 seconds
Experimental: (§1) Select compounds were tested for antimicrobial activity using ASTM method […]-16 (Standard Guide for Assessment of Antimicrobial Activity using a Time-Kill Procedure). Six microbes were tested: Candida albicans, Staphylococcus aureus, Staphylococcus epidermidis. Escherichia coli, Salmonella abony, and Listeria monocytogenes. Four chlorhexidine salts were tested: chlorhexidine di-α-glucoheptonate (Sample G), chlorhexidine di-β73-glucoheptonate (Sample H), chlorhexidine digluconate (Sample I), and chlorhexidine diacetate (Sample P). Both chlorhexidine diglucoheptonate salts were prepared at a 2:1 molar ratio of glucoheptonic acid to chlorhexidine. Dilutions of each salt were prepared using sterile water (20-30 ppm hardness), to achieve the desired wt. % concentration. Two glucoheptonic acids were evaluated for antimicrobial activity against the same six microbes as Example 13. Sample L was α-glucoheptonic acid. Sample M was β73-glucoheptonic acid. Benzalkonium salts were also tested using the same procedure as set forth in Example 13. The samples were benzalkonium chloride (C12-C16) (Sample C), benzalkonium chloride (C12-C14) (Sample D), benzalkonium chloride in combination with a stoichiometric amount of α-glucoheptonate (Sample F), and benzalkonium chloride in combination with a molar excess of α-glucoheptonate (Sample N). Sample F was prepared by mixing and extensively heating a stoichiometric quantity (1:1) of sodium α-glucoheptonate with benzalkonium chloride, typified by the C12-14 alkyl chain. Sample N was prepared by simply blending benzalkonium chloride, typified by the C12-16 chain, with a molar excess of sodium α-glucoheptonate (1.6:1). Both Samples F and N contain sodium chloride.

Staphylococcus aureus = test: ASTM E2315-16 Time-Kill Procedure; assay type: cell-based; conditions: 30 seconds
Experimental: as §1

[2] = test system: Staphylococcus epidermidis; test: ASTM E2315-16 Time-Kill Procedure; assay type: cell-based; conditions: 30 seconds
Experimental: as §1

Escherichia coli = test: ASTM E2315-16 Time-Kill Procedure; assay type: cell-based; conditions: 30 seconds
Experimental: as §1, with “concentration.” for “concentration. Two glucoheptonic acids were evaluated for antimicrobial activity against the same six microbes as Example 13. Sample L was α-glucoheptonic acid. Sample M was β73-glucoheptonic acid.”

Listeria monocytogenes = test: ASTM E2315-16 Time-Kill Procedure; assay type: cell-based; conditions: 30 seconds
Experimental: as §1, with “concentration.” for “concentration. Two glucoheptonic acids were evaluated for antimicrobial activity against the same six microbes as Example 13. Sample L was α-glucoheptonic acid. Sample M was β73-glucoheptonic acid.”

Salmonella abony = test: ASTM E2315-16 Time-Kill Procedure; assay type: cell-based; conditions: 30 seconds
Experimental: as §1, with “concentration.” for “concentration. Two glucoheptonic acids were evaluated for antimicrobial activity against the same six microbes as Example 13. Sample L was α-glucoheptonic acid. Sample M was β73-glucoheptonic acid.”

[3] = test system: all microbes (Candida albicans, Staphylococcus aureus, Staphylococcus epidermidis, Escherichia coli, Salmonella abony, Listeria monocytogenes); test: ASTM E2315-16 Time-Kill Procedure, average across all microbes; assay type: cell-based; conditions: for Log Reduction, Average, all microbes: 30 seconds; for average Log Reduction (LR) in microbial population across all microbes: 10 minutes
Experimental: Select compounds were tested for antimicrobial activity using ASTM method […]-16 (Standard Guide for Assessment of Antimicrobial Activity using a Time-Kill Procedure). Six microbes were tested: Candida albicans, Staphylococcus aureus, Staphylococcus epidermidis. Escherichia coli, Salmonella abony, and Listeria monocytogenes. Four chlorhexidine salts were tested: chlorhexidine di-α-glucoheptonate (Sample G), chlorhexidine di-β73-glucoheptonate (Sample H), chlorhexidine digluconate (Sample I), and chlorhexidine diacetate (Sample P). Both chlorhexidine diglucoheptonate salts were prepared at a 2:1 molar ratio of glucoheptonic acid to chlorhexidine. Dilutions of each salt were prepared using sterile water (20-30 ppm hardness), to achieve the desired wt. % concentration. Samples G, H, I, and P were also tested at a concentration of 0.60 wt % active and evaluated for the average Log Reduction in microbial population at 10 minutes, across all microbes. A further test was conducted at a concentration of 1.0 wt % active and evaluated for the average Log Reduction in microbial population at 10 minutes, across all microbes. Benzalkonium salts were also tested using the same procedure as set forth in Example 13. The samples were benzalkonium chloride (C12-C16) (Sample C), benzalkonium chloride (C12-C14) (Sample D), benzalkonium chloride in combination with a stoichiometric amount of α-glucoheptonate (Sample F), and benzalkonium chloride in combination with a molar excess of α-glucoheptonate (Sample N). Sample F was prepared by mixing and extensively heating a stoichiometric quantity (1:1) of sodium α-glucoheptonate with benzalkonium chloride, typified by the C12-14 alkyl chain. Sample N was prepared by simply blending benzalkonium chloride, typified by the C12-16 chain, with a molar excess of sodium α-glucoheptonate (1.6:1). Both Samples F and N contain sodium chloride. A further antimicrobial test was conducted to determine the log reduction at 10 minutes. Samples C, D, F, and N are as defined above.

## N=C(NCCCCCCNC(=N)NC(=N)Nc1ccc(Cl)cc1)NC(=N)Nc1ccc(Cl)cc1.O=C(O)C(O)C(O)C(O)C(O)C(O)CO.O=C(O)C(O)C(O)C(O)C(O)C(O)CO [Sample H, chlorhexidine di-β73-glucoheptonate]
[1]
  surface tension versus bubble age (rate and magnitude of reduction): fall more rapidly and to a lower value than either the di-α-glucoheptonate or the comparative digluconate salt
Candida albicans; 0.20% (wt. %)
  Log Reduction: 4.26
Candida albicans; 0.60% (wt. %)
  Log Reduction: 4.56
Candida albicans; 1.00% (wt. %)
  Log Reduction: 4.51
Staphylococcus aureus; 0.20% (wt. %)
  Log Reduction: 0.76
Staphylococcus aureus; 0.60% (wt. %)
  Log Reduction: 3.19
Staphylococcus aureus; 1.00% (wt. %)
  Log Reduction: 4.33
[2]; 0.20% (wt. %)
  Log Reduction: 1.47
[2]; 0.60% (wt. %)
  Log Reduction: 2.65
[2]; 1.00% (wt. %)
  Log Reduction: 3.75
Escherichia coli; 0.20% (wt. %)
  Log Reduction: 2.39
Escherichia coli; 0.60% (wt. %)
  Log Reduction: 2.87
Escherichia coli; 1.00% (wt. %)
  Log Reduction: 3.77
Listeria monocytogenes; 0.20% (wt. %)
  Log Reduction: 1.57
Listeria monocytogenes; 0.60% (wt. %)
  Log Reduction: 4.99
Listeria monocytogenes; 1.00% (wt. %)
  Log Reduction: 5.27
Salmonella abony; 0.20% (wt. %)
  Log Reduction: 3.14
Salmonella abony; 0.60% (wt. %)
  Log Reduction: 3.26
Salmonella abony; 1.00% (wt. %)
  Log Reduction: 3.44
[3]; 0.20% (wt. %)
  Log Reduction, Average, all microbes: 2.27
[3]; 0.60% (wt. %)
  Log Reduction, Average, all microbes: 3.59
[3]; 1.00% (wt. %)
  Log Reduction, Average, all microbes: 4.18
[3]; 0.60 wt % active
  average Log Reduction (LR) in microbial population across all microbes: 5.25
[3]; 1.0 wt % active
  average Log Reduction (LR) in microbial population across all microbes: 5.51
[3]; at lower concentrations
  performance in the Time-Kill Test: better performance than the di-α-glucoheptonate salt
